This experiment has as its target T1, Human CaV2.2 channels (Homo sapiens, UniProt Q00975).
T1 construct: expressed in transfected cells; host or cells: HEK293
Description: Fluorescent (FLIPR) assay for CaV2.2 channels using potassium depolarization to induce channel opening. It counts as cell-based. As to conditions: 3 μM compound; 30 mM KCl assay buffer (inactivated channel state); HEK293 cells stably expressing human CaV2.2; read-out: Activity Category: %-Inhib (CaV2.2) @3 μM @30 mM KCl. The source says:
In the process, the Ca^2+ influx is quantified in the FLIPR assay with the aid of a Ca^2+-sensitive dye (type Fluo-4, Molecular Probes Europe BV, Leiden, the Netherlands) in a fluorescent imaging plate reader (FLIPR 3, Molecular Devices, Sunnyvale, USA), as described hereinafter.
Human CaV2.2 channels were stably expressed in HEK293 cells together with alpha2-delta and beta subunits of voltage gated calcium channels. In addition, an inwardly rectifying potassium channel (Kir2.3) was stably expressed in these cells to augment control of the cell membrane potential by the concentration of extracellular potassium ions. Raise of the extracellular potassium concentration leads to depolarization of the membrane potential and thus regulates the voltage dependent state of CaV2.2 channels. For preparation, cells were seeded in black poly-D-lysine coated 96-well plates (Becton Dickinson, Biocoat 4640) in 100 μL medium [500 mL DMEM/F-12 plus Glutamax (Invitrogen 31331-093) plus 5.5 mL MEM NEAA 100× (Invitrogen 11140-035) plus 50 mL FBS decomplemented (Invitrogen 10270-106) plus 200 μg/mL Geneticin (Invitrogen 10131-027) plus 50 μg/mL Hygromycin B (Invitrogen 10687-010) plus 2 μg/mL Blasticidin (anti-bl5b Invivo-Gen) plus 0.2 μg/mL Puromycin (A 11138-03)] at a cell density of 30.000 cells per well. Plates were incubated at 37° C. (5% CO2) for 20 to 23 h. On the day of experiment medium was discarded and cells were loaded with Fluo 4 by addition of 100 μL of basic assay buffer (10 mM HEPES, 1 mM KCl, 149 mM NaCl, 0.8 mM CaCl2, 1.7 mM MgCl2, 10 mM Glucose, 0.1% BSA. pH 7.4) containing 2 μM Fluo 4 (Molecular Probes; F-14201), 0.01% pluronic acid (Molecular Probes; P-6866) and 2.5 mM probenecid (Molecular Probes; P36400). Cells were incubated in the dark at 25° C. for 60 min. Then dye containing buffer was discarded and 100 μL basic (1 mM KCl) or alternative (30 mM KCl) assay buffer was added. The alternative assay buffer contained altered concentrations of KCl (30 mM) and NaCl (120 mM) and was used in order to promote the inactivated channel state. After that 25 μL of basic or alternative assay buffer with or without test compound were added and cells were incubated again in the dark at 25° C. for 15 min. Fluorescence intensity was measured on a FLIPR 3 instrument (Molecular Devices Corp., Sunnyvale, Calif.) with excitation at 480 nm and emission at 535 nm. After continuously reading fluorescence for 30 sec, 50 μL of basic assay buffer containing 210 mM KCl (NaCl omitted) were added for depolarization. Peak fluorescent signal intensity was determined and the amplitude of the peak signal, normalized to base line, was used to measure channel inhibition by test compounds.
T1 sequence (Q00975 whole entry): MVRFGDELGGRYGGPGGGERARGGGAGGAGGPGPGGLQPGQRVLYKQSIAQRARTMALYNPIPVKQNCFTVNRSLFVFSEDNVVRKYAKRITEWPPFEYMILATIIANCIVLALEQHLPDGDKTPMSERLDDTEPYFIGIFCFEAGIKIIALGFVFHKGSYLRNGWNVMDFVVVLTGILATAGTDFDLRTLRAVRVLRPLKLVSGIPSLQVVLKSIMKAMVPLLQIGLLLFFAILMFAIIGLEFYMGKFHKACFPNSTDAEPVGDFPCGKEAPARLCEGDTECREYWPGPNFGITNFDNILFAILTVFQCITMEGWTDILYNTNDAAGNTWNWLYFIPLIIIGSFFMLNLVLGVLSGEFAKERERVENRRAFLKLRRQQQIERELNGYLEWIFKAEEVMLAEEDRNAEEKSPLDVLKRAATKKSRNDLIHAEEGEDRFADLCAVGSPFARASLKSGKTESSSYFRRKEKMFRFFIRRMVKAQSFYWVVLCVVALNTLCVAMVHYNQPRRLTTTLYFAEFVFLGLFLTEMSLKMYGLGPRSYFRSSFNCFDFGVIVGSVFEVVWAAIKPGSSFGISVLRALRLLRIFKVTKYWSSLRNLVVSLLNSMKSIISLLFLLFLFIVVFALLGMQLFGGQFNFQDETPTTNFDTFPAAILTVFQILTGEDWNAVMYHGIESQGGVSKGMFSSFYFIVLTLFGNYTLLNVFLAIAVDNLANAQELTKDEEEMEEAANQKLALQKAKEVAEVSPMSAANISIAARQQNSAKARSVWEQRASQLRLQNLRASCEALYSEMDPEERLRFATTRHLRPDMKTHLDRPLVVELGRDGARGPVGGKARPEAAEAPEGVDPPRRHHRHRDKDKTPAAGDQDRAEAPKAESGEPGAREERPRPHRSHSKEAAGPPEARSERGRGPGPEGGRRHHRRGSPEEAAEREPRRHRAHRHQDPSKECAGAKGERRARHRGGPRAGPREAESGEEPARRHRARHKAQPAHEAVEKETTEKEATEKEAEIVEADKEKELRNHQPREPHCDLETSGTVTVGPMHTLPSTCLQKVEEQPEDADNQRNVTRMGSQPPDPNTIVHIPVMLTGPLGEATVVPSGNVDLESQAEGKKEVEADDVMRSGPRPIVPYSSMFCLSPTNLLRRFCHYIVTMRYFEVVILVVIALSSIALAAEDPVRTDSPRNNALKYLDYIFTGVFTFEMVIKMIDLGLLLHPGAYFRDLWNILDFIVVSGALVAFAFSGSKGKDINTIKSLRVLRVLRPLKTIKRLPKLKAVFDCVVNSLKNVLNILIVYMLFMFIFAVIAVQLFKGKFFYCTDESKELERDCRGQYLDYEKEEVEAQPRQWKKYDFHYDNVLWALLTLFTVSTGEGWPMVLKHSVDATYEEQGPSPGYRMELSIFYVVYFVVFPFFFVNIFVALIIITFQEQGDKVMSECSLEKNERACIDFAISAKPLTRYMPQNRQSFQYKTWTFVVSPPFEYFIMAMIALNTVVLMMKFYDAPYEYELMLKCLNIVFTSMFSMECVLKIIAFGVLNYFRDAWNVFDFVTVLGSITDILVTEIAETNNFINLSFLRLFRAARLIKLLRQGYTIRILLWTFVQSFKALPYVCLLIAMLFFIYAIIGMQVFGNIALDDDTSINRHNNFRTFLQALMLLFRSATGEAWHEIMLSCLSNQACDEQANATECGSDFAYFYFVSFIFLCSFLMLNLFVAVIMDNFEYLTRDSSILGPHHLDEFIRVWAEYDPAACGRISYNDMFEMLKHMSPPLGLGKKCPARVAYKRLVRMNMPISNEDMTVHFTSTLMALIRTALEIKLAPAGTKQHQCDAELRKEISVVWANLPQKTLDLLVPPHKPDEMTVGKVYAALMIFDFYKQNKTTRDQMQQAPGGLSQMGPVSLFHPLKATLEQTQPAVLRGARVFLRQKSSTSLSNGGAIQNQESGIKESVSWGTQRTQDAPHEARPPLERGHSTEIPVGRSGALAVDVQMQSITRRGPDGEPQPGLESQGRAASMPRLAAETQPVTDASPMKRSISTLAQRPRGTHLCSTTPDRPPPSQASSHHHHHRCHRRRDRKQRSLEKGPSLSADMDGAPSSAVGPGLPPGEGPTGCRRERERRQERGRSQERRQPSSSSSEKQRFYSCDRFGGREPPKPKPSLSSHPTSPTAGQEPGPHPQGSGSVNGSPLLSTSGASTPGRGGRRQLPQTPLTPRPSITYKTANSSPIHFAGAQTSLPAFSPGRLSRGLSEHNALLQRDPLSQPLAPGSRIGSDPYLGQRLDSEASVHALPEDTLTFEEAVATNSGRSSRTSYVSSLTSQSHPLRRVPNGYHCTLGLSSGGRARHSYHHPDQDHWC
T1 sequence (P54284 whole entry, further chain): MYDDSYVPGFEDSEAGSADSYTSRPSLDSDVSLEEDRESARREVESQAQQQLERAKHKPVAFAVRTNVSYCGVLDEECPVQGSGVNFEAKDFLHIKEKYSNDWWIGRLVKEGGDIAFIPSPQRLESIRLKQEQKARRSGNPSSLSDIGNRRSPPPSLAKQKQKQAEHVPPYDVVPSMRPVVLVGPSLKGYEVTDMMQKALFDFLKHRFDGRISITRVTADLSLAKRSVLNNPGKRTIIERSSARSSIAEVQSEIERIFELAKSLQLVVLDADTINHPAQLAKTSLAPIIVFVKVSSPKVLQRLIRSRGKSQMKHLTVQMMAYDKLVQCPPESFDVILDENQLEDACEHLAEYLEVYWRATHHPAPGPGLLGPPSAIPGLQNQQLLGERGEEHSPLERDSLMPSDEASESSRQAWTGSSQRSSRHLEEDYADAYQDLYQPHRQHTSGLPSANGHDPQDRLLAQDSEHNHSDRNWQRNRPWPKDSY
T1 sequence (P54289 25-1103, further chain): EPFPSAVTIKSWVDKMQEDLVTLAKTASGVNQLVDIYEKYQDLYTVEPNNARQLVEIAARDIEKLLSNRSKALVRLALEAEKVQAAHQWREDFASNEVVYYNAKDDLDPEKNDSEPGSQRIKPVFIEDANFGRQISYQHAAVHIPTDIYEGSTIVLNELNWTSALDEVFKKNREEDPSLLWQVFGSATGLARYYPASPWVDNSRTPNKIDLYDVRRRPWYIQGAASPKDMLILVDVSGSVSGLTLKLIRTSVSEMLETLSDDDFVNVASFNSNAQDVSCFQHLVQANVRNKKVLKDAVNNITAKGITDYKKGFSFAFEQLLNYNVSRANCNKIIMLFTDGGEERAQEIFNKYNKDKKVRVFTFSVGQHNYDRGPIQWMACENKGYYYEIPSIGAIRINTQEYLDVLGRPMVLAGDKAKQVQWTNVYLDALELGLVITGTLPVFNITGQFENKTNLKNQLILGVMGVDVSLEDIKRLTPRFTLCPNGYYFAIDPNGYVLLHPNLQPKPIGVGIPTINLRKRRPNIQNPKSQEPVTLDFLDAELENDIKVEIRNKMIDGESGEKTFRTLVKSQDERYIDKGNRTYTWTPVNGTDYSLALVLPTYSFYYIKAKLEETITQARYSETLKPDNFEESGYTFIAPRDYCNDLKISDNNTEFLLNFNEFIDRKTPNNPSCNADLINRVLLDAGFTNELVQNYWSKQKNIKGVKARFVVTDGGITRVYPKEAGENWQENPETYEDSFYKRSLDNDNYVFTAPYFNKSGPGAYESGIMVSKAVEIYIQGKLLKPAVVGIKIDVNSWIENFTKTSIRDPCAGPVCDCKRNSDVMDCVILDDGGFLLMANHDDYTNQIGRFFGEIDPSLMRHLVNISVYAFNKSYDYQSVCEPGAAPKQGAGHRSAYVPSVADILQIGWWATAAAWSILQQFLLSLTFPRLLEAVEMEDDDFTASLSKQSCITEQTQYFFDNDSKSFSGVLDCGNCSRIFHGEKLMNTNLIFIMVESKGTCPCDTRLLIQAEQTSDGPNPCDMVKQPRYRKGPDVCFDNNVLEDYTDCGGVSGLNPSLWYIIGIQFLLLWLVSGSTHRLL
For the molecule `Cc1cnc(CN(C)C(=O)c2c(-c3ccc(F)cc3)cc(C(F)(F)F)n2CC(C)C)cn1` [Example 049, 3-(4-Fluorophenyl)-N-methyl-1-(2-methyl-propyl)-N-[(5-methyl-pyrazin-2-yl)-methyl]-5-(trifluoromethyl)-1H-pyrrole-2-carboxylic acid amide], the inhibition at 3 µM was more than 95%.

With `CC(C)Cn1c(C(F)(F)F)cc(-c2ccc(F)cc2)c1C(=O)N(C)CCS(C)(=O)=O` [Example 050, 3-(4-Fluorophenyl)-N-methyl-1-(2-methyl-propyl)-N-(2-methylsulfonyl-ethyl)-5-(trifluoromethyl)-1H-pyrrole-2-carboxylic acid amide], the inhibition at 3 µM was in the range of 75 to 95%. With `Cc1c(-c2ccc(Cl)cc2)c(C(=O)N(C)C2(C(N)=O)CC2)n(CC(C)C)c1C(F)(F)F` [Example 051, N-(1-Carbamoyl-cyclopropyl)-3-(4-chlorophenyl)-N,4-dimethyl-1-(2-methyl-propyl)-5-(trifluoromethyl)-1H-pyrrole-2-carboxylic acid amide] the figure was more than 95%; with `Cc1c(-c2ccc(Cl)cc2)c(C(=O)N(C)CC(C)(C)C(N)=O)n(CC(C)C)c1C(F)(F)F` [Example 052, N-(2-Carbamoyl-2-methyl-propyl)-3-(4-chlorophenyl)-N,4-dimethyl-1-(2-methyl-propyl)-5-(trifluoromethyl)-1H-pyrrole-2-carboxylic acid amide], 75 to 95%; with `CC(C)Cn1c(C(F)(F)F)cc(-c2ccc(F)cc2)c1C(=O)N(C)CC(C)(C)C` [Example 053, N-(2,2-Dimethyl-propyl)-3-(4-fluorophenyl)-N-methyl-1-(2-methyl-propyl)-5-(trifluoromethyl)-1H-pyrrole-2-carboxylic acid amide], 40 to 75%.

As for `CC(C)Cn1c(C(F)(F)F)cc(-c2ccc(F)cc2)c1C(=O)N(C)CC(C)(C)CN1CCOCC1` [Example 054, N-(2,2-Dimethyl-3-morpholin-4-yl-propyl)-3-(4-fluorophenyl)-N-methyl-1-(2-methyl-propyl)-5-(trifluoromethyl)-1H-pyrrole-2-carboxylic acid amide], the inhibition at 3 µM lay in the range of 75 to 95%.

Turning to `Cc1c(-c2ccc(Cl)cc2)c(C(=O)N(C)CC(C)(C)CO)n(CC(C)C)c1C(F)(F)F` [Example 055, 3-(4-Chlorophenyl)-N-(3-hydroxy-2,2-dimethyl-propyl)-N,4-dimethyl-1-(2-methyl-propyl)-5-(trifluoromethyl)-1H-pyrrole-2-carboxylic acid amide], the inhibition at 3 µM is more than 95%. Then `CC(C)Cn1c(C(F)(F)F)cc(-c2ccc(F)cc2)c1C(=O)N(C)CC(C)(C)CO` [Example 056, 3-(4-Fluorophenyl)-N-(3-hydroxy-2,2-dimethyl-propyl)-N-methyl-1-(2-methyl-propyl)-5-(trifluoromethyl)-1H-pyrrole-2-carboxylic acid amide], with 75 to 95%; and `Cc1cc(CN(C)C(=O)c2c(-c3ccc(Cl)cc3)c(C)c(C(F)(F)F)n2CC(C)C)no1` [Example 057, 3-(4-Chlorophenyl)-N,4-dimethyl-N-[(5-methyl-isoxazol-3-yl)-methyl]-1-(2-methyl-propyl)-5-(trifluoromethyl)-1H-pyrrole-2-carboxylic acid amide], with more than 95%.

As for `CC(C)Cn1c(C(F)(F)F)cc(-c2ccc(F)cc2)c1C(=O)N(C)CC1CCOC1` (centres unmarked) [Example 058, 3-(4-Fluorophenyl)-N-methyl-1-(2-methyl-propyl)-N-(tetrahydro-furan-3-yl-methyl)-5-(trifluoromethyl)-1H-pyrrole-2-carboxylic acid amide], the inhibition at 3 µM is more than 95%. As for `Cc1cnc(CN(C)C(=O)c2c(-c3ccc(Cl)cc3)c(C)c(C(F)(F)F)n2CC(C)C)cn1` [Example 059, 3-(4-Chlorophenyl)-N,4-dimethyl-1-(2-methyl-propyl)-N-[(5-methyl-pyrazin-2-yl)-methyl]-5-(trifluoromethyl)-1H-pyrrole-2-carboxylic acid amide], the inhibition at 3 µM is more than 95%.

Source of the values: patent publication US20160289186A1, “FLUOROMETHYL-SUBSTITUTED PYRROLE CA[…]” (Grunenthal GmbH, priority 2013, published 2016).
